Test results taken from patent publication US9353107B2 (Aurigene Discovery Technologies Limited, priority 2012, dated 2016).

Molecular target: T1, recombinant human ALK enzyme (ALK WT) (Homo sapiens, UniProt Q9UM73)
T1 construct: purchased Carna Biosciences 08-518
Assay: ALK WT cell free enzymatic assay (TR-FRET)
Assay type: biochemical
Settings: 1 μM ATP; for IC50: 10 point dose response; for inhibition at 0.1 µM: compound at 100 nM; for inhibition at 0.1 µM / inhibition at 1 µM: 30 min pre-incubation; for inhibition at 1 µM: compound at 1 μM
Method in brief: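 Recombinant human ALK with 40 nM Ultra Light Poly GT, 1 μM ATP and Eu anti-phosphotyrosine antibody, 1% DMSO, pH 7.1 HEPES; 30 min enzyme-compound pre-incubation, then 30 min reaction. TR-FRET 665/615 ratio; percent inhibition at 100 nM and 1 μM, IC50 from 10-point sigmoidal fit.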

T1 sequence (Q9UM73 1058-1620 limits assumed): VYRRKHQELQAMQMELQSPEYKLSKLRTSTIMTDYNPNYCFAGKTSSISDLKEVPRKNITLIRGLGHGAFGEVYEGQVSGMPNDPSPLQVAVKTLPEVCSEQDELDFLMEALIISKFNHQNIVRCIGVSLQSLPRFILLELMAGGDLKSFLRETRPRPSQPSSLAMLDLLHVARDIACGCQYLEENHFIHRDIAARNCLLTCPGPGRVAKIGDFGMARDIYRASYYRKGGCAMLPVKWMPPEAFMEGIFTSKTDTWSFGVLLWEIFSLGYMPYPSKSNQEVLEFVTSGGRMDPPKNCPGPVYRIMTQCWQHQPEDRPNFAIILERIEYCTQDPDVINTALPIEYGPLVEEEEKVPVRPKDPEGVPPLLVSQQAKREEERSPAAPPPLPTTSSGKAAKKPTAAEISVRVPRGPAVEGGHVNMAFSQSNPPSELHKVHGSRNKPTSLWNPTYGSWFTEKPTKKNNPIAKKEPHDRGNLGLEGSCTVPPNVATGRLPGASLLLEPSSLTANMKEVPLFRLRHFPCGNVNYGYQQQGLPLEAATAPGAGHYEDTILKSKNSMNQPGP

| SMILES | IC50 | inhibition at 0.1 µM | inhibition at 1 µM |
| --- | --- | --- | --- |
| Cc1nn(Cc2cccc(F)c2)c(C)c1-c1c[nH]c2ncc(-c3ccc(N4CCN(C[C@H](C)O)CC4)cc3)cc12 [Example 123, (2S)-1-(4-(4-(3-(1-(3-fluorobenzyl)-3,5-dimethyl-1H-pyrazol-4-yl)-1H-pyrrolo[2,3-b]pyridin-5-yl)phenyl)piperazin-1-yl)propan-2-ol] | < 50 nM | 92% | 96% |
| O=C(CC1CC1)N1CCN(c2ccc(-c3cnc4[nH]cc(-c5cnn(Cc6cccc(F)c6)c5)c4c3)cc2)CC1 [Example 124, 2-cyclopropyl-1-(4-(4-(3-(1-(3-fluorobenzyl)-1H-pyrazol-4-yl)-1H-pyrrolo[2,3-b]pyridin-5-yl)phenyl)piperazin-1-yl)ethanone] | > 250 nM | 17% | 86% |
| CS(=O)(=O)N1CCN(c2ccc(-c3cnc4[nH]cc(-c5cnn(Cc6cccc(F)c6)c5)c4c3)cc2)CC1 [Example 125, 3-(1-(3-fluorobenzyl)-1H-pyrazol-4-yl)-5-(4-(4-(methylsulfonyl)piperazin-1-yl)phenyl)-1H-pyrrolo[2,3-b]pyridine] | < 50 nM | 86% | 97% |
| OCCN1CCN(c2ccc(-c3cnc4[nH]cc(-c5cnn(Cc6cccc(F)c6)c5)c4c3)cc2)CC1 [Example 126, 2-(4-(4-(3-(1-(3-fluorobenzyl)-1H-pyrazol-4-yl)-1H-pyrrolo[2,3-b]pyridin-5-yl)phenyl)piperazin-1-yl)ethanol] | < 50 nM | 95% | 97% |

Now from value to molecule:

| IC50 | inhibition at 0.1 µM | inhibition at 1 µM | SMILES |
| --- | --- | --- | --- |
| < 50 nM | 91% | 95% | C[C@H](O)CN1CCN(c2ccc(-c3cnc4[nH]cc(-c5cnn(CCc6ccccc6)c5)c4c3)cc2)CC1 [Example 117, (S)-1-(4-(4-(3-(1-phenethyl-1H-pyrazol-4-yl)-1H-pyrrolo[2,3-b]pyridin-5-yl)phenyl)piperazin-1-yl)propan-2-ol] |
| < 50 nM | 94% | 98% | C[C@H](O)CN1CCN(c2ccc(-c3cnc4[nH]cc(-c5cnn(Cc6ccccc6)c5)c4c3)cc2)CC1 [Example 118, (S)-1-(4-(4-(3-(1-benzyl-1H-pyrazol-4-yl)-1H-pyrrolo[2,3-b]pyridin-5-yl)phenyl)piperazin-1-yl)propan-2-ol] |
| < 50 nM | 86% | 93% | Cc1cccc(Cn2cc(-c3c[nH]c4ncc(-c5ccc(N6CCN(C[C@H](C)O)CC6)cc5)cc34)cn2)c1 [Example 119, (S)-1-(4-(4-(3-(1-(3-methylbenzyl)-1H-pyrazol-4-yl)-1H-pyrrolo[2,3-b]pyridin-5-yl)phenyl)piperazin-1-yl)propan-2-ol] |
| < 50 nM | 95% | 99% | C[C@@H](O)CN1CCN(c2ccc(-c3cnc4[nH]cc(-c5cnn(Cc6cccc(F)c6)c5)c4c3)cc2)CC1 [Example 120, (R)-1-(4-(4-(3-(1-(3-fluorobenzyl)-1H-pyrazol-4-yl)-1H-pyrrolo[2,3-b]pyridin-5-yl)phenyl)piperazin-1-yl)propan-2-ol] |
| < 50 nM | 91% | 95% | C[C@H](O)CN1CCN(c2ccc(-c3cnc4[nH]cc(-c5cnn(Cc6cccc(F)c6)c5)c4c3)c(F)c2)CC1 [Example 121, (S)-1-(4-(3-fluoro-4-(3-(1-(3-fluorobenzyl)-1H-pyrazol-4-yl)-1H-pyrrolo[2,3-b]pyridin-5-yl)phenyl)piperazin-1-yl)propan-2-ol] |
| < 50 nM | 90% | 96% | OC1CCN(c2ccc(-c3cnc4[nH]cc(-c5cnn(Cc6cccc(F)c6)c5)c4c3)cc2)CC1 [Example 122, 1-(4-(3-(1-(3-fluorobenzyl)-1H-pyrazol-4-yl)-1H-pyrrolo[2,3-b]pyridin-5-yl)phenyl)piperidin-4-ol] |
